Here are results for ten compounds from PubChem BioAssay (NCI).

Usually GI50 stands for the concentration at which growth is held to half of that of the control. For orientation: TGI means the concentration at which net growth stops. Low readings indicate greater sensitivity of the cells, high ones lower sensitivity of the cells.

Some test systems named below: NCI/ADR-RES ovarian; SN12C renal; RXF 393 renal; OVCAR-8 ovarian; SR leukemia; SF-295 CNS; DU-145 prostate; SK-OV-3 ovarian; HCC-2998 colon; IGROV1 ovarian.
Holding throughout (experiment): DTP human tumour cell line panel, 48 h

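Grown in 96-well plates, cells were treated for 48 hours with each compound at five concentrations. Insufficient inhibition: endpoint recorded as highest concentration tested. GI50 marks 50% less growth. TGI marks complete inhibition of growth.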 A value given as a limit tells only on which side of the number the result lay.

In the case of `CSC(=NC#N)S/C=C/C(=O)c1ccccc1`, the GI50 was 31.3 µM in the assay with NCI/ADR-RES ovarian; 39.4 µM with SN12C renal; 31.1 µM with RXF 393 renal; 38.1 µM in the assay with OVCAR-8 ovarian; 12.9 µM in the assay on SR leukemia; 30.5 µM with SF-295 CNS. Also, the GI50 in the assay on DU-145 prostate is 20.6 µM; in the assay with SK-OV-3 ovarian, over 100 µM; with HCC-2998 colon, 59.4 µM. The TGI in the assay on NCI/ADR-RES ovarian is 99.3 µM; in the assay with SN12C renal, over 100 µM; in the assay with RXF 393 renal, 79 µM; with OVCAR-8 ovarian, over 100 µM; with SR leukemia, 69.4 µM; in the assay on SF-295 CNS it was over 100 µM. Further, the TGI with DU-145 prostate is 46.3 µM; with SK-OV-3 ovarian, over 100 µM; with HCC-2998 colon, over 100 µM.

With `CC(=O)O[C@H]([C@H](OC(C)=O)[C@H](C)OC(C)=O)[C@@H](/C=C/[C@@H]1CC=CC(=O)O1)OC(C)=O`, the GI50 with NCI/ADR-RES ovarian is over 100 µM; in the assay with SN12C renal, 84.1 µM; with RXF 393 renal, over 100 µM; with OVCAR-8 ovarian it was 40.6 µM; in the assay with SR leukemia it was 77.5 µM; in the assay with SF-295 CNS, 15.8 µM. Also, the GI50 with DU-145 prostate was 37.9 µM; with SK-OV-3 ovarian, over 100 µM; in the assay on HCC-2998 colon it was 29 µM. Also, the TGI with NCI/ADR-RES ovarian was over 100 µM; in the assay on SN12C renal, over 100 µM; with RXF 393 renal, over 100 µM; with OVCAR-8 ovarian, over 100 µM; with SR leukemia it was over 100 µM; with SF-295 CNS, 45.9 µM. The TGI with DU-145 prostate was over 100 µM; in the assay with SK-OV-3 ovarian, over 100 µM; with HCC-2998 colon, 77.2 µM.

As for `CCCCOC(=O)c1ccc(N)cc1`, the GI50 in the assay on NCI/ADR-RES ovarian is 92.4 µM; in the assay on SN12C renal, over 100 µM; with RXF 393 renal it was over 100 µM; in the assay with OVCAR-8 ovarian, over 100 µM; in the assay on IGROV1 ovarian it was over 100 µM; with SF-295 CNS it was 19 µM. Besides, the figures for the GI50 in the assay with DU-145 prostate, in the assay on SK-OV-3 ovarian and in the assay with HCC-2998 colon were over 100 µM, over 100 µM and 22.7 µM, respectively. Moreover, the total growth inhibition concentration (TGI) in the assay on NCI/ADR-RES ovarian was over 100 µM; with SN12C renal, over 100 µM; with RXF 393 renal it was over 100 µM; with OVCAR-8 ovarian, over 100 µM; with IGROV1 ovarian it was over 100 µM; in the assay on SF-295 CNS, 89.1 µM. The total growth inhibition concentration (TGI) with DU-145 prostate was over 100 µM; in the assay with SK-OV-3 ovarian, over 100 µM; in the assay with HCC-2998 colon, 66.2 µM.

For the compound `COc1cc2c(c(OC)c1OC)-c1ccc(O)cc1[C@@H](NC(C)=O)CC2`, the GI50 is 0.533 µM with NCI/ADR-RES ovarian; 0.0897 µM in the assay with SN12C renal; 0.0562 µM in the assay with OVCAR-8 ovarian; 0.0515 µM with IGROV1 ovarian; 0.0265 µM with SR leukemia; 0.0341 µM in the assay with SF-295 CNS. For the same compound, the GI50 was 0.0365 µM with DU-145 prostate, 0.0377 µM in the assay on SK-OV-3 ovarian and 0.0465 µM in the assay on HCC-2998 colon. The TGI in the assay with NCI/ADR-RES ovarian was 6.78 µM; with SN12C renal it was over 100 µM; in the assay with OVCAR-8 ovarian, over 100 µM; in the assay with SF-295 CNS, over 100 µM; with DU-145 prostate, 0.168 µM; in the assay with SK-OV-3 ovarian, over 100 µM. For the same compound, in the assay with HCC-2998 colon, the TGI is over 100 µM.

For `O=c1c2ccc(S(=O)(=O)c3ccc4c(=O)n5c6ccccc6nc5c5cccc3c45)c3cccc(c32)c2nc3ccccc3n12`, the TGI with NCI/ADR-RES ovarian was over 100 µM; with SN12C renal it was over 100 µM; with RXF 393 renal it was 34.5 µM; in the assay on OVCAR-8 ovarian, over 100 µM; in the assay on IGROV1 ovarian, 18.2 µM; with SF-295 CNS, 53.2 µM. Besides, the TGI in the assay on DU-145 prostate was over 100 µM; with SK-OV-3 ovarian it was 31.6 µM; in the assay on HCC-2998 colon, over 100 µM.

For `O=c1[nH]c2ccccc2c2nc3ccccc3n12`, the concentration for total growth inhibition (TGI) with NCI/ADR-RES ovarian, in the assay with SN12C renal, in the assay on RXF 393 renal, in the assay with OVCAR-8 ovarian, in the assay on IGROV1 ovarian and in the assay with SF-295 CNS was over 100 µM in each case. For the same compound, the TGI is over 100 µM in the assay on DU-145 prostate, 49.7 µM with SK-OV-3 ovarian and over 100 µM in the assay on HCC-2998 colon.

With `O=C(O)[C@H](Cc1c[nH]c2ccccc12)N1C(=O)c2ccccc2C1=O`, the TGI with NCI/ADR-RES ovarian, with SN12C renal, in the assay on RXF 393 renal, with OVCAR-8 ovarian, in the assay with IGROV1 ovarian and with SF-295 CNS was over 100 µM each time. The TGI in the assay on DU-145 prostate, in the assay with SK-OV-3 ovarian and in the assay with HCC-2998 colon was over 100 µM in each case. In addition, the GI50 with OVCAR-8 ovarian and with IGROV1 ovarian was over 100 µM in each case.

For the compound `COC(=O)N1CC(=O)C(C(=O)NC23CC4CC(CC(C4)C2)C3)C1` (centres undefined), the concentration for total growth inhibition (TGI) in the assay on NCI/ADR-RES ovarian, with RXF 393 renal, in the assay with OVCAR-8 ovarian, with IGROV1 ovarian, in the assay with SR leukemia and with SF-295 CNS was over 100 µM in each case. Moreover, the concentration for total growth inhibition (TGI) with DU-145 prostate and in the assay on HCC-2998 colon was over 100 µM in each case.

On to `CC1=CC(C)=NN=C(N)N1S(=O)(=O)c1cc(C)c(Cl)cc1SCc1ccccc1`, for which the GI50 in the assay with NCI/ADR-RES ovarian was 8.71 µM; in the assay on SN12C renal, 32.2 µM; with OVCAR-8 ovarian, 56.6 µM; with IGROV1 ovarian, 46 µM; in the assay with SR leukemia it was 16.5 µM; in the assay with SF-295 CNS it was 34.3 µM. Also, the GI50 is 73.4 µM in the assay on DU-145 prostate, 77.7 µM in the assay on SK-OV-3 ovarian and 11.9 µM in the assay on HCC-2998 colon. Besides, the TGI with NCI/ADR-RES ovarian, in the assay with SN12C renal, in the assay on OVCAR-8 ovarian, with IGROV1 ovarian, with SR leukemia and with SF-295 CNS was over 100 µM throughout. Moreover, the TGI with DU-145 prostate, in the assay with SK-OV-3 ovarian and in the assay on HCC-2998 colon was over 100 µM throughout.

In the case of `CC(=O)OC1CCC2(C)C(CCC3C2CC(=O)C2(C)C3CC(N3CC3)C2C(C)=O)C1` (centres undefined), the concentration for total growth inhibition (TGI) was found to be 94.2 µM with NCI/ADR-RES ovarian; 61 µM with SN12C renal; 42.3 µM in the assay on RXF 393 renal; 46.7 µM with OVCAR-8 ovarian; 56.4 µM with IGROV1 ovarian; 64.7 µM in the assay with SR leukemia. In addition, the total growth inhibition concentration (TGI) was 51 µM in the assay with SF-295 CNS, over 100 µM with DU-145 prostate and 32 µM with HCC-2998 colon.
